Data set [1] concerns patient-derived PPT2 prostate cancer stem cell xenograft. The experiment in a line: Patient-derived prostate cancer stem cell (PPT2) xenograft model. Type of data set: in vivo, mice. Particulars: patient-derived prostate CSC xenograft. For orientation: In xenograft studies the graft and the host belong to different species.
In data set [2] the test system is PD-L1 surface expression in Panc02 cells. The experiment in a line: PD-L1 surface protein expression by flow cytometry. The data set is classed as cell-based, murine. The conditions noted are these: IC50 concentration, 48 hours. How it is done:
(§1) Cells were seeded at 0.5×10^6 cells/well in 6-well plates for overnight at 37 C in a humidified atmosphere containing 5% CO2. […] The percentage maximal response is shown as a function of anti-cancer agents when administered to Panc02 cells. The cell viability was measured by the MTT assay after 96 hours of incubation at 37° C. Data represent mean±standard deviation (n=3). Significant differences are indicated as follows: *p<0.05, and **p<0.01. The expression level of PD-L1 was determined using flow cytometry as follows. Briefly, cells harvested from in vitro cultures were washed twice with 3% BSA/PBS and then incubated with rat anti-PD-L1 or isotype control antibodies (mouse, BioXcell, West Lebanon, N.H., USA) for 30 minutes at 4 C, then washed three times and incubated with anti-rat AlexaFluor 488 conjugated Antibody. The cells were washed once with 3% BSA/PBS and analyzed by flow cytometer on a FACSCalibur flow cytometer and CellQuest™ Pro version 6.0 software (both from Becton-Dickinson and Co.).
Panc02 cells were treated with gemcitabine, Abraxane™, paclitaxel and DHA-SBT-1214 both in solution and nanoemulsion for 48 hours to determine whether they can induce PD-L1 protein expression. PD-L1 expression levels on tumor cells were determined by flow cytometry and is expressed as the A mean fluorescence intensity (ΔMFI; MFI using anti-PD-L1 subtracted from the isotype control). […] PD-L1 expression was analyzed using flow cytometry and is presented as ΔMFI (MFI using anti-PD-L1 subtracted from the isotype control). Data represent the mean±standard deviation of at least 3 independent experiments; *p<0.05, **p<0.01, ***p<0.001. As reported previously, PD-L1 level enhanced in pancreatic tumor tissues compared to in vitro growing cells as shown in FIG. 8.
In general terms: Flow cytometry measures light scatter and fluorescence of single cells or particles in a stream.

The subject of data set [3] is highly drug resistant tumor xenografts. The experiment in a line: Highly drug resistant tumor xenografts in mice. The conditions noted are these: mouse, in vivo.
The test system of data set [4] is human PANC-1 pancreatic tumor xenograft. The experiment in a line: Human PANC-1 pancreatic tumor xenograft, schedule comparison (FIG. 3). The data set is classed as in vivo, RPCI SCID mice. The source says:
In FIG. 3, this experiment compared a q7d×3 with a q3d×3 schedule for paclitaxel and DHA-SBT-1214 using a human PANC-1 pancreatic tumor xenograft in RPCI SCID mice. […] Paclitaxel was only weakly effective, showing tumor growth delays of 18 days with q7d×3 schedule and 13 days with q3d×3 schedule and no CRs.

Data set [5] relates to human CFPAC-1 pancreatic tumor xenograft. As to the kind of experiment: Human CFPAC-1 pancreatic tumor xenograft efficacy (FIG. 2). The conditions noted are these: for efficacy as compared to vehicles: CFPAC-1 xenograft. The data set is classed as in vivo, mice.
The subject of data set [6] is Panc02 cells. The experiment in a line: Cell viability (MTT assay) in Panc02 cells. The conditions noted are these: Mus musculus, 96 hours of drug exposure. The data set is classed as cell-based, murine. Here is the method: The murine pancreatic cancer cell line Panc02, which is syngeneic to C57Bl/6 mice was a kind gift from Professor Michael A. Hollingsworth, UNMC, Omaha, Nebr. Panc02 cells were grown in 75 cm^2 cell culture flasks and maintained in DMEM medium supplemented with 10% fetal bovine serum (FBS), L-glutamine and penicillin (100 U/ml)/streptomycin (100 μg/ml) (both from Gibco Life Technologies, Carlsbad, Calif., USA). Cells were incubated at 37° C. in a humidified atmosphere containing 5% CO2.
To see cytotoxic effect of different drugs and nanoemulsion formulation, 5000 cells were seeded in each well of the 96-well plate for overnight at 37° C. in a humidified atmosphere containing 5% CO2. Various drugs (Paclitaxel, Abraxane, Gemcitabine and solution and nanoemulsion of DHA-SBT-1214) were diluted at concentrations ranging from 0 nM, 0.01 nM, 0.1 nM, 1 nM, 10 nM, 100 nM, 1000 nM to 10000 nM and Panc02 cells treated with these concentrations for 96 hours. After incubation, cells were treated with 3-(4,5-dimethylthiazol-2-yl)-2,5-diphenyltetrazolium bromide ([…]). MU crystals were dissolved with DMSO and plates were read at 570 nm absorbance using a BioTek Synergy HTX Multi-Mode Microplate Reader.
as §1, with “Briefly, cells harvested from in vitro cultures were washed twice with 3% BSA/PBS and then incubated with rat anti-PD-L1 or isotype control antibodies (mouse, BioXcell, West Lebanon, N.H., USA) for 30 minutes at 4 C, then washed three times and incubated with anti-rat AlexaFluor 488 conjugated Antibody.” left out, “Co.). […]” for “Co.).”

Data set [7] has as its system PDAC. The conditions noted are these: cited from earlier work.

The term IC50 denotes the concentration needed to halve the response being measured. Take `CC(=O)O[C@H]1C(=O)[C@@]2(C)[C@H]([C@H](OC(=O)c3ccccc3)[C@]3(O)C[C@H](OC(=O)[C@H](O)[C@@H](NC(=O)c4ccccc4)c4ccccc4)C(C)=C1C3(C)C)[C@]1(OC(C)=O)CO[C@@H]1C[C@@H]2O` [paclitaxel, reference compound]: the “efficacy (tumor growth, survival)” value in data set [1] is reported as “completely ineffective”. For the same molecule, the “PD-L1 surface expression (ΔMFI)” value in data set [2] is given as “upregulated”. Further, the efficacy entry in data set [3] is “do not show meaningful activity”. Also, the “complete responses (CRs)” value in data set [4] (PANC-1 xenograft) is listed as “no CRs”. The tumor growth delay in data set [4] (q3d×3 schedule) was 13 days; in data set [4] (q7d×3 schedule), 18 days. The “efficacy as compared to vehicles” value in data set [5] is listed as “only minor tumor growth delay”. Moreover, the IC50 in data set [6] turned out to be 0.443 µM.
`O=c1[nH]cc(F)c(=O)[nH]1` [5-FU, 5-flurouracil]: in data set [7] (randomized Phase III trial, gemcitabine versus 5-FU), the median overall survival is on record as 4.41 months.
Regarding `CC/C=C\C/C=C\C/C=C\C/C=C\C/C=C\C/C=C/CCC(=O)O[C@@H](C(=O)O[C@H]1C[C@@]2(O)[C@@H](OC(=O)c3ccccc3)C3[C@](C)(C(=O)[C@H](OC(C)=O)C(=C1C)C2(C)C)[C@@H](O)C[C@H]1OC[C@@]31OC(C)=O)[C@@H](NC(=O)c1ccccc1)c1ccccc1` (stereo partly shown) [DHA-paclitaxel], the efficacy result in data set [3] is listed as “do not show meaningful activity”. The “efficacy as compared to vehicles” value in data set [5] is listed as “only minor tumor growth delay”.
In data set [5] (120 mg/kg total dose, until day 20), `CC(=O)O[C@@]12CO[C@@H]1C[C@H](O)[C@@]1(C)C(=O)[C@H](OC(=O)C3CC3)C3=C(C)[C@@H](OC(=O)[C@H](O)[C@H](C=C(C)C)NC(=O)OC(C)(C)C)C[C@@](O)([C@@H](OC(=O)c4ccccc4)[C@H]21)C3(C)C` [SBT-1214] returned a weight loss below 4%.
Consider FOLFIRINOX, for which the median survival in data set [7] (Phase III clinical trial of FOLFIRINOX) is 11.1 months.

The values above are taken from patent US11497713B2, “Combination taxoid nanoemulsion with immunotherapy in cancer” (TargaGenix, Inc., priority 2017, dated 2022).
